Test results taken from US9255090B2, “Heterocyclyl derivatives and their use as prostaglandin D2 receptor modulators” (Actelion Pharmaceuticals Ltd., priority 2012, dated 2016).

Experiments:
[1] = target: hCRTH2 receptor (Homo sapiens (Human), UniProt Q9Y5Y4); assay: hCRTH2 receptor membranes radioligand (3H-PGD2) displacement assay; type: binding; conditions: 3H-PGD2 radioligand displacement, HEK293-hCRTH2 membranes
In short: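 Compound was first mixed with buffer, then 3H-PGD2 was added at 2.5 nM, and the reaction was started with hCRTH2 membranes from HEK293 cells at 20 μg/well. After 90 min at room temperature, mixtures were filtered and washed with ice-cold buffer, and retained radioactivity was counted.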

[2] = test system: eosinophils; assay: Eosinophil shape change assay with human plasma; type: cell-based; conditions: Homo sapiens, Eosinophil, human plasma (50%), PGD2 100 nM activation, antagonistic activity
In short: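 Human polymorphonuclear cells stained with anti-CD49d-APC, combined with compound-preincubated human plasma (50% of final volume, 4×10^6 cells/ml) for 10 min at 37° C., then stimulated 5 min with 100 nM PGD2 and fixed. Flow cytometry scored percent eosinophils with increased forward scatter.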

Chain of hCRTH2 receptor (Q9Y5Y4 whole entry): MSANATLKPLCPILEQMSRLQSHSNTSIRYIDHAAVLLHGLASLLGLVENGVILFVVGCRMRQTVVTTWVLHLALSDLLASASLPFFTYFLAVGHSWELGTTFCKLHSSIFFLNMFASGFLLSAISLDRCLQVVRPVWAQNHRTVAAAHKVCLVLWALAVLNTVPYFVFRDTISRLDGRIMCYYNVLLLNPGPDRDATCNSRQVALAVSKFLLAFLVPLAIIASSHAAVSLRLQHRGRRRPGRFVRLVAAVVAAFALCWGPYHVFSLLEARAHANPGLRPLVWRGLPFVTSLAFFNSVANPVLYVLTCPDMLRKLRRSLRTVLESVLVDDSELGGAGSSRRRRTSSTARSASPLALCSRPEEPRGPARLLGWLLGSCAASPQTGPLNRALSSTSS

Row | Compound | IC50 [1] | IC50 [2]
1 | COc1ccc(CC(=O)O)cc1-c1ccc(F)c2c1CN(C(=O)CC1CCOc3ccccc31)CC2 (racemic) [Example 262] | 8.4 nM | 66 nM
2 | COc1ccc(CC(=O)O)cc1-c1ccc(F)c2c1CN(C(=O)CCCc1ccccc1F)CC2 [Example 45, (3-{5-Fluoro-2-[4-(2-fluoro-phenyl)-butyryl]-1,2,3,4-tetrahydro-isoquinolin-8-yl}-4-methoxy-phenyl)-acetic acid] | 2.9 nM | 64 nM
3 | CCOc1ccc(CC(=O)O)cc1-c1ccc(F)c2c1CN(C(=O)CC1CCOc3cc(F)ccc31)CC2 (racemic) [Example 335] | 0.9 nM | 26 nM
4 | CCOc1cc(CC(=O)O)ccc1-c1ccc(F)c2c1CN(C(=O)CC1(c3ccccc3)CC1)CC2 [Example 230, (3-Ethoxy-4-{5-fluoro-2-[2-(1-phenyl-cyclopropyl)-acetyl]-1,2,3,4-tetrahydro-isoquinolin-8-yl}-phenyl)-acetic acid] | 1 nM | 19 nM
5 | CC(C)Oc1cc(CC(=O)O)ccc1-c1ccc(F)c2c1CN(C(=O)OCc1ccccc1)CC2 [Example 217, 8-(4-Carboxymethyl-2-isopropoxy-phenyl)-5-fluoro-3,4-dihydro-1H-isoquinoline-2-carboxylic acid benzyl ester] | 2.3 nM | 46 nM
6 | COc1ccc(CC(=O)O)cc1-c1ccc(F)c2c1CN(C(=O)CCOc1ccc(F)cc1)CC2 [Example 42, (3-{5-Fluoro-2-[3-(4-fluoro-phenoxy)-propionyl]-1,2,3,4-tetrahydro-isoquinolin-8-yl}-4-methoxy-phenyl)-acetic acid] | 8.76 nM | 118 nM
7 | CN(C)c1ccc(CC(=O)O)cc1-c1ccc(F)c2c1CN(C(=O)OCc1ccccc1)CC2 [Example 420, 8-(5-Carboxymethyl-2-dimethylamino-phenyl)-5-fluoro-3,4-dihydro-1H-isoquinoline-2-carboxylic acid benzyl ester] | 2.4 nM | 17 nM
8 | COc1ccc(CC(=O)O)cc1-c1ccc(F)c2c1CN(C(=O)OCc1cccc(F)c1)CC2 [Example 138, 8-(5-Carboxymethyl-2-methoxy-phenyl)-5-fluoro-3,4-dihydro-1H-isoquinoline-2-carboxylic acid 3-fluoro-benzyl ester] | 5.42 nM | 908 nM
9 | CCOc1ccc(CC(=O)O)cc1-c1ccc(F)c2c1CN(C(=O)CC1(c3ccc(F)cc3)CC1)CC2 [Example 277, [4-Ethoxy-3-(5-fluoro-2-{2-[1-(4-fluoro-phenyl)-cyclopropyl]-acetyl}-1,2,3,4-tetrahydro-isoquinolin-8-yl)-phenyl]-acetic acid] | 1.9 nM | 21 nM
10 | COc1ccc(CC(=O)O)cc1-c1ccc(F)c2c1CN(C(=O)CC(C)c1ccccn1)CC2 (racemic) [Example 265] | 7.8 nM | 98 nM
11 | CCOc1cc(CC(=O)O)ccc1-c1ccc(F)c2c1CN(C(=O)C(C)Cc1ccccn1)CC2 (racemic) [Example 352] | 8.1 nM | 103 nM
12 | CCOc1ccc(CC(=O)O)cc1-c1ccc(F)c2c1CN(C(=O)CC1(c3cccc(F)c3)CC1)CC2 [Example 275, [4-Ethoxy-3-(5-fluoro-2-{2-[1-(3-fluoro-phenyl)-cyclopropyl]-acetyl}-1,2,3,4-tetrahydro-isoquinolin-8-yl)-phenyl]-acetic acid] | 6.8 nM | 76 nM
13 | CCOc1ccc(CC(=O)O)cc1-c1ccc(F)c2c1CN(C(=O)CC1OCCc3ccccc31)CC2 (racemic) [Example 224] | 8.2 nM | 10 nM
14 | O=C(O)Cc1ccc(-c2ccc(F)c3c2CN(C(=O)OCc2ccccc2)CC3)c(OCC(F)(F)F)c1 [Example 411, 8-[4-Carboxymethyl-2-(2,2,2-trifluoro-ethoxy)-phenyl]-5-fluoro-3,4-dihydro-1H-isoquinoline-2-carboxylic acid benzyl ester] | 1 nM | 13 nM
15 | CCOc1ccc(CC(=O)O)cc1-c1ccc(F)c2c1CN(C(=O)OCc1ccccn1)CC2 [Example 394, 8-(5-Carboxymethyl-2-ethoxy-phenyl)-5-fluoro-3,4-dihydro-1H-isoquinoline-2-carboxylic acid pyridin-2-ylmethyl ester] | 1.2 nM | 12 nM
16 | CCOc1ccc(CC(=O)O)cc1-c1ccc(F)c2c1CN(C(=O)OCC1CCCCC1)CC2 [Example 396, 8-(5-Carboxymethyl-2-ethoxy-phenyl)-5-fluoro-3,4-dihydro-1H-isoquinoline-2-carboxylic acid cyclohexylmethyl ester] | 2.6 nM | 18 nM
17 | COc1cc(CC(=O)O)ccc1-c1ccc(F)c2c1CN(C(=O)CCCc1ccccc1F)CC2 [Example 185, (4-{5-Fluoro-2-[4-(2-fluoro-phenyl)-butyryl]-1,2,3,4-tetrahydro-isoquinolin-8-yl}-3-methoxy-phenyl)-acetic acid] | 1.28 nM | 97 nM
18 | CCOc1cc(CC(=O)O)ccc1-c1ccc(F)c2c1CN(C(=O)CC1OCCc3ccccc31)CC2 (stereo not drawn) [Example 205, {3-Ethoxy-4-[5-fluoro-2-(2-isochroman-1-yl-acetyl)-1,2,3,4-tetrahydro-isoquinolin-8-yl]-phenyl}-acetic acid] | 1 nM | 17 nM
19 | CCOc1ccc(CC(=O)O)cc1-c1ccc(F)c2c1CN(C(=O)OCc1ccc(F)cc1)CC2 [Example 398, 8-(5-Carboxymethyl-2-ethoxy-phenyl)-5-fluoro-3,4-dihydro-1H-isoquinoline-2-carboxylic acid 4-fluoro-benzyl ester] | 3.4 nM | 13 nM
20 | CCOc1ccc(CC(=O)O)cc1-c1ccc(F)c2c1CN(C(=O)OCc1cccc(C)n1)CC2 [Example 371, 8-(5-Carboxymethyl-2-ethoxy-phenyl)-5-fluoro-3,4-dihydro-1H-isoquinoline-2-carboxylic acid 6-methyl-pyridin-2-ylmethyl ester] | 0.6 nM | 23 nM
21 | COc1cc(CC(=O)O)ccc1-c1ccc(F)c2c1CN(C(=O)CC(C)(C)c1ccc(F)cc1)CC2 [Example 358, (4-{5-Fluoro-2-[3-(4-fluoro-phenyl)-3-methyl-butyryl]-1,2,3,4-tetrahydro-isoquinolin-8-yl}-3-methoxy-phenyl)-acetic acid] | 1.1 nM | 11 nM
22 | COc1ccc(CC(=O)O)cc1-c1ccc(F)c2c1CN(C(=O)[C@@H]1C[C@H]1c1ccccc1F)CC2 (racemic) [Example 5, (±)-(3-{5-Fluoro-2-[trans-2-(2-fluoro-phenyl)-cyclopropanecarbonyl]-1,2,3,4-tetrahydro-isoquinolin-8-yl}-4-methoxy-phenyl)-acetic acid] | 3.64 nM | 12 nM
23 | COc1ccc(CC(=O)O)cc1-c1ccc(C#N)c2c1CN(C(=O)OCc1ccccc1)CC2 [Example 169, 8-(5-Carboxymethyl-2-methoxy-phenyl)-5-cyano-3,4-dihydro-1H-isoquinoline-2-carboxylic acid benzyl ester] | 9.17 nM | 146 nM
24 | COCCOc1ccc(CC(=O)O)cc1-c1ccc(F)c2c1CN(C(=O)OCc1ccccc1)CC2 [Example 199, 8-[5-Carboxymethyl-2-(2-methoxy-ethoxy)-phenyl]-5-fluoro-3,4-dihydro-1H-isoquinoline-2-carboxylic acid benzyl ester] | 0.49 nM | 19 nM
